From paper PMC3391563 (2011)
Where two headings read alike, the source gives them in different places.

Experiments:
[1] = molecular target: T1, Af-OMO (ornithine monooxygenase, SidA) (Aspergillus fumigatus, UniProt E9QYP0); assay: hydroxylation coupling ratio; type: biochemical
[2] = molecular target: T1, Af-OMO (ornithine monooxygenase, SidA)
[3] = molecular target: T1, Af-OMO (ornithine monooxygenase, SidA); assay: stopped-flow UV/vis, concentration dependence of kobs for FAD-OOH formation; type: biochemical
[4] = molecular target: T1, Af-OMO (ornithine monooxygenase, SidA); assay: as above; type: biochemical; remark: listed apart in the source
[5] = molecular target: T1, Af-OMO (ornithine monooxygenase, SidA); assay: stopped-flow UV/vis, concentration dependence of kobs; type: biochemical
[6] = molecular target: T1, Af-OMO (ornithine monooxygenase, SidA); assay: as above; type: biochemical; remark: listed apart in the source
[7] = molecular target: T1, Af-OMO (ornithine monooxygenase, SidA); assay: stopped-flow; type: biochemical

T1 sequence (E9QYP0 whole entry): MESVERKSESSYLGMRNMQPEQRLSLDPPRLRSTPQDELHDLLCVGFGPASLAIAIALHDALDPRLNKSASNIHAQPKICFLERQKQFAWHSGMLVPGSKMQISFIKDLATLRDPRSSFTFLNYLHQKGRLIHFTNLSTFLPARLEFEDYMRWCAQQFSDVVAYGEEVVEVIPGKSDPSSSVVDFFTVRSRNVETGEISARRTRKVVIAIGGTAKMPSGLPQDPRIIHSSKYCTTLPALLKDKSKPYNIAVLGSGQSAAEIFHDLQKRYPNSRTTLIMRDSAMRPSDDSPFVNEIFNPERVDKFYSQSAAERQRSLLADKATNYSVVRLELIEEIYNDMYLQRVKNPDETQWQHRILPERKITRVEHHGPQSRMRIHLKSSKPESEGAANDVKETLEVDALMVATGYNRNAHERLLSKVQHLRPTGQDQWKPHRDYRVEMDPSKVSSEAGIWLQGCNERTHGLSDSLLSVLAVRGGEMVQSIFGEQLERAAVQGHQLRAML

For `NCCC[C@@H](N)C(=O)O` [D-Orn, D-ornithine], the “compd-OH: NADPH ^c” value [1] was 0.63 (0.03).

In the case of `NCCCCN` [DAB, 1,4-diaminobutane], the “compd-OH: NADPH ^c” value [2] is reported as 0.59 (0.02).

`N=C(N)NCCC[C@H](N)C(=O)O` [L-Arg, L-arginine] gave a Kd [3] of 620 ± 70 µM.

`NC(=O)NCCC[C@H](N)C(=O)O` [L-Citr, L-citrulline] showed a Kd [4] of 4400 ± 900 µM.

In the case of `NCCCC[C@H](N)C(=O)O` [L-Lys, L-lysine], the Kd [5] is reported as 130 ± 30 µM.

With `NCCC[C@H](N)C(=O)O` [L-Orn, L-ornithine] the Kd [6] was 310 ± 40 µM.

In the case of `N[C@@H](CCCNO)C(=O)O` [L-Orn-N^εOH, N^ε-hydroxy-L-ornithine], the “kFAD (s^-1)” value [7] is reported as 0.34 (0.01) s^-1.
